Measured values from patent publication US7253286B2, “Nitrogen-containing aromatic derivatives” (Eisai Co., Ltd, priority 2000, dated 2007).

How the values were obtained:
[1] = system: Human Umbilical Vein Endothelial Cells (HUVECs); test: Inhibition against sandwich tube formation by vascular endothelial cells in response to stimulation by VEGF; format: cell-based; conditions: HUVEC in collagen gel sandwich, stimulation by VEGF (25 ng/ml VEGF and 10 ng/ml EGF), 4th day, total tube length, read-out: IC50 (concentration required for 50% inhibition of tube formation)
Method in brief: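 HUVECs were sandwiched between collagen gel layers in serum-free medium with 25 ng/ml VEGF plus 10 ng/ml EGF, with test substance added above the gel at 37 °C. On day 4 tubes were MTT-stained and total tube length measured by image analysis. IC50 is the concentration halving tube length relative to no-compound wells.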

VEGFR2 = target: T1, VEGFR2 (Homo sapiens, UniProt P35968); test: Inhibition against VEGFR2 kinase (receptor tyrosine kinase activity, HTRF method); format: biochemical; conditions: His6-VEGFR2 cytoplasmic domain, biotin-poly(GT) substrate, ATP, 30° C. 10 minutes, read-out: IC50 (concentration required for 50% inhibition of VEGFR2 kinase activity)
T1 construct: coding for the cytoplasmic domain, beginning with lysine 791 and including the termination codon; made in house; host or cells: Sf9 insect cells (baculovirus, pFastBacHis)
Description: Measurement of Inhibition Against Receptor Tyrosine Kinase Activity
This assay is used to determine inhibition of a test substance on tyrosine kinase activity. DNA coding for the cytoplasmic domain of VEGFR2 is obtained by total cDNA synthesis (Edwards M, International Biotechnology Lab 5(3), 19–25, 1987) or by cloning. Expression in an appropriate expression system can produce a polypeptide with tyrosine kinase activity. […] For VEGFR2 (Genbank Accession No. L04947), the 1.7 kb DNA fragment described by Terman et al. (Oncogene, 6(9), 1677–1683, 1991), coding for the cytoplasmic domain, beginning with lysine 791 and including the termination codon, was isolated from a human placental cDNA library (purchased from Clontech Laboratories, Inc.) and cloned in a Baculovirus expression vector (pFastBacHis, purchased from GIBCO BRL) The recombinant construct was transfected into insect cells (Spondoptea frugiperda9 (Sf9)) to prepare a recombinant Baculovirus. (Instructions for preparation and use of recombinant Baculovirus maybe found in standard texts, such as “Bac-To-Bac Baculovirus Expression System” (GIBCO BRL).) The cytoplasmic fragment starting from lysine 398 (FGFR1, Genbank Accession No. X52833), the cytoplasmic fragment starting from lysine 558 (PDGFRβ, Genbank Accession No. M21616) or the cytoplasmic fragment starting from lysine 974 (HGFR, Genbank Accession No. J02958) may be cloned and expressed by the same method for use in assays for other tyrosine kinases. EGFR was purchased from Sigma Co. (Product No. E-2645).
For expression of the VEGFR2 tyrosine kinase, Sf9 cells were infected with the VEGFR2 recombinant virus and collected after 48 hours. The collected cells were rinsed with ice-cooled phosphate buffered saline (PBS) and then resuspended using 20 ml of ice-cooled Lysis Buffer (50 mM Tris-HCl (pH 8.5), 5 mM 2-mercaptoethanol, 100 mM KCl, 1 mM phenylmethylsulfonyl fluoride, 1% (v/v) NP-40) per 1.5×10^8 cells. The suspension was centrifuged at 12,000 rpm for 30 minutes at 4° C. and the supernatant was obtained.
The supernatant was added to a Ni—NTA agarose column (3 ml, purchased from Qiagen) equilibrated with Buffer A {20 mM Tris-HCl (pH 8.5), 5 mM 2-mercaptoethanol, 500 mM KCl, 20 mM imidazole, 10% (v/v) glycerol}. The column was washed with 30 ml of Buffer A, and then with 6 ml of Buffer B {20 mM Tris-HCl (pH 8.5), 5 mM 2-mercaptoethanol, 1M KCl, 10% (v/v) glycerol}, and finally with 6 ml of Buffer A. After washing, it was eluted with 6 ml of Buffer C {20 mM Tris-HCl (pH8.5), 5mM2-mercaptoethanol, 100 mMKCl, 100 mM imidazole, 10% (v/v) glycerol}. The eluate was placed on a dialysis membrane (purchased from Spectrum Laboratories) and dialyzed with a dialysis buffer {20 mM Tris-HCl (pH 7.5), 10% (v/v) glycerol, 1 mM dithiothreitol, 0.1 mM Na3VO4, 0.1 mM EGTA}. After dialysis, it was supplied for SDS-electrophoresis, and the recombinant protein (His6-VEGFR2, cytoplasmic domain of VEGFR2 fused with 6 histidine residues at the N-terminus) detected at a molecular weight of approximately 100 kDa with Coumassie Brilliant Blue staining was assayed using BSA (bovine serum albumin, purchased from Sigma Co.) as the standard substance, and stored at −80° C. until use. Using the same method for the cytoplasmic domains of FGFR1, PDGFRβ and HGFR yielded respective recombinant proteins fused with 6 histidine residues at the N-termini (His6-FGFR1, His6-PDGFRβ or His6-HGFR).
The tyrosine kinase reaction was conducted as follows. […]

T1 sequence (P35968 786-1356 limits assumed): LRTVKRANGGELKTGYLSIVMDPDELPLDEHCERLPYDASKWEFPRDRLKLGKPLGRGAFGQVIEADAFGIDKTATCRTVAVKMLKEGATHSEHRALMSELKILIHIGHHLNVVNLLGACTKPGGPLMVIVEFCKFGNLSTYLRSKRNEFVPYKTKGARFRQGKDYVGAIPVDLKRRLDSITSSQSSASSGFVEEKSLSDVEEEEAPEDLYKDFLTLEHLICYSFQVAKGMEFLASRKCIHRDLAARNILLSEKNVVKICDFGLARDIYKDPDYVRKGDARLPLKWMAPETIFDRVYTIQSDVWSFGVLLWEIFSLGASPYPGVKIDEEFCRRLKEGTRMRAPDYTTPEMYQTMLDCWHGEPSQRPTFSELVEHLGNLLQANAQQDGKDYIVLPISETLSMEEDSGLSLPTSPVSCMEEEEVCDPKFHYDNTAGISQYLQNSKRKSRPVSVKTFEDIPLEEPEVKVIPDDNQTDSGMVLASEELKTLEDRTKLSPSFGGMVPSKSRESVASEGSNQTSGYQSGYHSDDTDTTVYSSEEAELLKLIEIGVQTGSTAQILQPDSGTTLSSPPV

| SMILES | IC50 [1] | IC50 (VEGFR2) |
| --- | --- | --- |
| COc1ccc(NC(=O)Nc2ccc(Oc3ccnc4cc(OCCCc5ccncc5)c(C#N)cc34)cc2)cc1 [Example 1] | 310 nM | 51 nM |
| COCCOc1cc2nccc(Oc3ccc(NC(=O)Nc4ccccc4)cc3)c2cc1C#N [Example 65, N-(4-(6-cyano-7-(methoxyethoxy)-4-quinolyl)oxyphenyl)-N′-phenylurea] | 5.9 nM | 15 nM |
| COCCOc1cc2nccc(Oc3ccc(NC(=O)NC4CC4)cc3)c2cc1C(N)=O [Example 116, 4-(4-((Cyclopropylamino)carbonyl)aminophenoxy)-7-(2-methoxyethoxy)-6-quinolinecarboxamide] | 8.1 nM | 4.2 nM |
| COc1cc2nccc(Oc3ccc(NC(=O)NC4CC4)cc3)c2cc1C(N)=O [Example 121, 4-(4-((Cyclopropylamino)carbonyl)aminophenoxy)-7-methoxy-6-quinolinecarboxamide] | 42 nM | 8.7 nM |
| O=C(Nc1ccc(Oc2ncnc3[nH]c(-c4ccc(OC[C@H](O)CN5CCCC5)cc4)cc23)cc1Cl)NC1CC1 [Example 159, 1-(2-Chloro-4-{6-[4-((2R)-2-hydroxy-3-pyrrolidinopropoxy)phenyl]-7H-pyrrolo[2,3-d]pyrimidin-4-yloxy]phenyl}-3-cyclopropylurea] | 0.6 nM | 25 nM |
| COCCOc1cc2nccc(Sc3ccc(NC(=O)Nc4ccc(F)cc4)s3)c2cc1C#N [Example 253, 1-{5-[6-Cyano-7-(2-methoxyethoxy)-quinolin-4-ylsulfanyl]thiophen-2-yl}-3-(4-fluorophenyl)urea] | 40 nM | 23 nM |
| COc1cc2nccc(Oc3ccc(NC(=O)Nc4ccc(F)cc4)cc3)c2cc1NC(C)=O [Example 265, N-(4-{4-[3-(4-Fluorophenyl)ureido]phenoxy}-7-methoxyquinolin-6-yl)acetamide] | 0.6 nM | 6.2 nM |
| COc1cc2nccc(Oc3ccc(NC(=O)Nc4ccc(F)cc4)cc3)c2cc1NS(C)(=O)=O [Example 266, N-(4-{4-[3-(4-Fluorophenyl)ureido]phenoxy}-7-methoxyquinolin-6-yl)methanesulfoneamide] | 0.6 nM | 5.4 nM |
| O=C(Nc1ccc(Oc2ncnc3[nH]c(-c4ccccn4)cc23)cc1F)NC1CC1 [Example 283, 1-Cyclopropyl-3-[2-fluoro-4-(6-(pyridin-2-yl)-7H-pyrrolo[2,3-d]pyrimidin-4-yloxy)phenyl]urea] | 36 nM | 26 nM |
| COc1cc2nccc(Oc3ccc4c(ccn4C(=O)NCCF)c3)c2cc1C(N)=O [Example 314, 6-Carbamoyl-4-[1-(2-fluoroethylcarbamoyl)1H-indol-5-yloxy]-7-methoxyquinoline] | 4.2 nM | 5.3 nM |
| CONC(=O)c1cc2c(Oc3ccc(NC(=O)Nc4nccs4)cc3)ccnc2cc1OC [Example 346, N6-Methoxy-7-methoxy-4-(4-(((1,3-thiazol-2-ylamino)carbonyl)amino)phenoxy)-6-quinolinecarboxamide] | 25 nM | 4.6 nM |
| COCCOc1cc2nccc(Oc3ccc(NC(=O)NC4CC4)c(Cl)c3)c2cc1C(N)=O [Example 381, 4-(3-Chloro-4-(cyclopropylaminocarbonyl)aminophenoxy)-7-(2-methoxyethoxy)-6-quinolinecarboxamide] | 4.7 nM | 2.6 nM |
| NC(=O)c1cc2c(Oc3ccc(NC(=O)NC4CC4)c(Cl)c3)ccnc2cc1OCCCN1CCOCC1 [Example 382, 4-(3-Chloro-4-(cyclopropylaminocarbonyl)aminophenoxy)-7-(3-(4-morpholino)propoxy)-6-quinolinecarboxamide] | 4.6 nM | 9 nM |
| COc1cc2nccc(Oc3ccc(NC(=O)NC4CC4)c(Cl)c3)c2cc1C(=O)NCC#N [Example 441, N6-Cyanomethyl-4-(3-chloro-4-(((cyclopropylamino)carbonyl)amino)phenoxy)-7-methoxy-6-quinolinecarboxamide] | 3.6 nM | 2.8 nM |
| COc1cc2nccc(Oc3ccc(NC(=O)NC4CC4)c(Cl)c3)c2cc1C(=O)NCC(N)=O [Example 449, N6-(2-Amino-2-oxoethyl)-4-(3-chloro-4-(((cyclopropylamino)carbonyl)amino)phenoxy)-7-methoxy-6-quinolinecarboxamide] | – | 2.2 nM |
| CCCC(=O)Nc1cc(Oc2ccc(NC(=O)Nc3ccc(F)cc3)cc2)ccn1 [Example 463, N-[4-(2-Butanoylaminopyridin-4-yl)oxyphenyl]-N′-(4-fluorophenyl)urea] | 26 nM | 5.9 nM |
| O=C(Nc1ccc(F)cc1)Nc1ccc(Oc2ccnc(NC(=O)c3cccnc3)c2)cc1 [Example 465, N-[4-(2-Nicotinoylaminopyridin-4-yl)oxyphenyl]-N′-(4-fluorophenyl)urea] | – | 13 nM |
| CC(=O)Nc1cc(Oc2ccc(NC(=O)Nc3cccc(S(C)(=O)=O)c3)cc2)ncn1 [Example 556, N-(6-(4-(3-(3-Methylsulfonylphenyl)ureido)phenoxy)pyrimidin-4-yl)acetamide] | – | 14 nM |
